Measurements taken from patent US8785488B2 (Exelixis Patent Company LLC, priority 2009, dated 2014).

Each compound was assayed against T1, h-TGR5 (Homo sapiens, UniProt Q8TDU6) (assay: TGR5 cAMP Assay using Cisbio cAMP Dynamic2 htrf kit (hTGR5CRE-luc HEK 293 cells)). Conditions: h-TGR5 cAMP EC50, Table 1; read-out: cAMP (EC50).
T1 construct: expressed in transfected cells
T1 sequence (Q8TDU6 1-330): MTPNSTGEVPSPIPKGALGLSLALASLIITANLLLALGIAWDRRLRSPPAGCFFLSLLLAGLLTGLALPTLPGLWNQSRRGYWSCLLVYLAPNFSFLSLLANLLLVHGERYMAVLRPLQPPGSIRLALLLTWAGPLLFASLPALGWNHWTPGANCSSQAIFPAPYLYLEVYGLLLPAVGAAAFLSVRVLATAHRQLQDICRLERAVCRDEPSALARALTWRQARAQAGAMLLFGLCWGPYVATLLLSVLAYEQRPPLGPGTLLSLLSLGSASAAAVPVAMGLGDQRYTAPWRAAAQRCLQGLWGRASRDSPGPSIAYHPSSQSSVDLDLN
Type: cell-based
Experimental: Compounds were diluted in DPBS with 5% DMSO (8-point serial dilution by half logs) in a 96-well plate and 1 μL was transferred to a 384-well assay plate in quadruplicate. The d2-cAMP and anti-cAMP Ab-cryptate stock solution were prepared as per the instructions in the Cisbio™ (Bedford, Mass.) kit. […] Cells were adjusted to 0.44×10^6 cells/ml followed by addition of IBMX to a final concentration of 0.5 mM. The cells were then mixed with d2-cAMP solution (7.1 mL cells+100 ul d2-cAMP) and 4000 cells (9 μL) were transferred to each well of the 384-well assay plate. Cells without d2-cAMP were added to eight wells as a negative control. The plate was covered and incubated at room temp for 30 min. Then 10 μL of Ab-cryptate solution was added to each well of the assay plate and incubated for 1 hr. The plate was read on an EnVision™ plate reader (Perkin-Elmer, Waltham, Mass.) and the DeltaF value was calculated as per the instructions in the Cisbio™ kit.
In the following tables, EC50 values determined according to the TGR5 cAMP Assay described herein (cAMP); EC50 values determined according to the TGR5/CRE-Luciferiase Assay described herein (CRE-Luc). […] The following compounds in Tables 1 and 2 were made by using procedures described in the above Schemes and Examples, and, where applicable, by making any necessary substitutions of known materials that one skilled in the art would ordinarily understand how to do.

EC50 [µM]	Structure (SMILES)
0.1 to 1	COCC1CCCN1NC(=O)NS(=O)(=O)c1ccc(CSc2ncc(C(C)(C)c3ccc(Cl)c(OC)c3)n2-c2ccc(F)cc2)c(Cl)c1 (stereo in doubt) [3-chloro-4-({[5-{1-[4-chloro-3-(methyloxy)phenyl]-1-methylethyl}-1-(4-fluorophenyl)-1H-imidazol-2-yl]thio}methyl)-N-[({(2S)-2-[(methyloxy)methyl]pyrrolidin-1-yl}amino)carbonyl]benzenesulfonamide]
1 to 10	CC(C)(c1ccc(S(C)(=O)=O)cc1)c1cnc(SCc2c(F)cc(C(=O)O)cc2F)n1-c1ccc(F)cn1 [3,5-difluoro-4-({[1-(5-fluoropyridin-2-yl)-5-{1-methyl-1-[4-(methylsulfonyl)phenyl]ethyl}-1H-imidazol-2-yl]thio}methyl)benzoic acid]
1 to 10	CC(C)(c1ccc(S(C)(=O)=O)cc1)c1cnc(SCc2ccc(S(=O)(=O)NC(=O)NN3CCCC3)cc2Cl)n1-c1ccc(F)c(F)c1 [3-chloro-4-({[1-(3,4-difluorophenyl)-5-{1-methyl-1-[4-(methylsulfonyl)phenyl]ethyl}-1H-imidazol-2-yl]thio}methyl)-N-[(pyrrolidin-1-ylamino)carbonyl]benzenesulfonamide]
0.1 to 1	COc1cc(C(C)(C)c2cnc(SCc3ccc(S(=O)(=O)NC(=O)NN4CCCC4)cc3Cl)n2-c2ccc(F)cc2)ccc1S(C)(=O)=O [3-chloro-4-({[1-(4-fluorophenyl)-5-{1-methyl-1-[3-(methyloxy)-4-(methylsulfonyl)phenyl]ethyl}-1H-imidazol-2-yl]thio}methyl)-N-[(pyrrolidin-1-ylamino)carbonyl]benzenesulfonamide]
1 to 10	COc1cc(C(C)(C)c2cnc(SCc3ccc(S(=O)(=O)NC(=O)NN4CCCC4)cc3Cl)n2-c2ncc(F)cc2F)ccc1Cl [3-chloro-4-({[5-{1-[4-chloro-3-(methyloxy)phenyl]-1-methylethyl}-1-(3,5-difluoropyridin-2-yl)-1H-imidazol-2-yl]thio}methyl)-N-[(pyrrolidin-1-ylamino)carbonyl]benzenesulfonamide]
1 to 10	COc1cc(C(C)(C)c2cnc(SCc3ccc(S(=O)(=O)NC(=O)NN4CCCC4)cc3Cl)n2-c2cc(C)c(Cl)cn2)ccc1Cl [3-chloro-4-({[5-{1-[4-chloro-3-(methyloxy)phenyl]-1-methylethyl}-1-(5-chloro-4-methylpyridin-2-yl)-1H-imidazol-2-yl]thio}methyl)-N-[(pyrrolidin-1-ylamino)carbonyl]benzenesulfonamide]
0.1 to 1	Cc1cc(-n2c(C(C)(C)c3ccc(F)cc3)cnc2SCc2ccc(S(=O)(=O)NC(=O)NN3CCCC3)cc2Cl)ccc1F [3-chloro-4-[({1-(4-fluoro-3-methylphenyl)-5-[1-(4-fluorophenyl)-1-methylethyl]-1H-imidazol-2-yl}thio)methyl]-N-[(pyrrolidin-1-ylamino)carbonyl]benzenesulfonamide]
1 to 10	CC(C)(c1ccc(Cl)cc1)c1cnc(SCc2ccc(S(=O)(=O)NC(=O)NN3CCCC3)cc2Cl)n1-c1ccc(F)cc1F [3-chloro-4-[({5-[1-(4-chlorophenyl)-1-methylethyl]-1-(2,4-difluorophenyl)-1H-imidazol-2-yl}thio)methyl]-N-[(pyrrolidin-1-ylamino)carbonyl]benzenesulfonamide]
1 to 10	CC(C)(c1ccc(S(N)(=O)=O)cc1)c1cnc(SCc2ccc(S(=O)(=O)NC(=O)NN3CCOCC3)cc2Cl)n1-c1ccc(F)c(Cl)c1 [4-({[5-{1-[4-(aminosulfonyl)phenyl]-1-methylethyl}-1-(3-chloro-4-fluorophenyl)-1H-imidazol-2-yl]thio}methyl)-3-chloro-N-[(morpholin-4-ylamino)carbonyl]benzenesulfonamide]

The remaining lines, values behind:

Structure (SMILES)	EC50 [µM]
CNS(=O)(=O)c1ccc(C(C)(C)c2cnc(SCc3ccc(S(=O)(=O)NC(=O)NN4CCCC4)cc3Cl)n2-c2ccc(F)cc2)cc1Cl [2-chloro-4-{1-[2-({[2-chloro-4-({[(pyrrolidin-1-ylamino)carbonyl]amino}sulfonyl)phenyl]methyl}thio)-1-(4-fluorophenyl)-1H-imidazol-5-yl]-1-methylethyl}-N-methylbenzenesulfonamide]	1 to 10
Cc1cc(-n2c(C(C)(C)c3ccc(S(C)(=O)=O)cc3)cnc2SCc2ccc(S(=O)(=O)NC(=O)NN3CCCC3)cc2Cl)ccc1F [3-chloro-4-({[1-(4-fluoro-3-methylphenyl)-5-{1-methyl-1-[4-(methylsulfonyl)phenyl]ethyl}-1H-imidazol-2-yl]thio}methyl)-N-[(pyrrolidin-1-ylamino)carbonyl]benzenesulfonamide]	1 to 10
CC(C)(c1ccc(F)c(C(F)F)c1)c1cnc(SCc2ccc(S(=O)(=O)NC(=O)NN3CCCC3)cc2Cl)n1-c1ccc(F)cc1 [3-chloro-4-({[5-{1-[3-(difluoromethyl)-4-fluorophenyl]-1-methylethyl}-1-(4-fluorophenyl)-1H-imidazol-2-yl]thio}methyl)-N-[(pyrrolidin-1-ylamino)carbonyl]benzenesulfonamide]	1 to 10
COc1cc(-n2c(C(C)(C)c3ccc(F)cc3)cnc2SCc2ccc(S(=O)(=O)NC(=O)NN3CCCC3)cc2Cl)ccc1F [3-chloro-4-[({1-[4-fluoro-3-(methyloxy)phenyl]-5-[1-(4-fluorophenyl)-1-methylethyl]-1H-imidazol-2-yl}thio)methyl]-N-[(pyrrolidin-1-ylamino)carbonyl]benzenesulfonamide]	0.1 to 1
CC(C)(c1ccc(S(N)(=O)=O)cc1)c1cnc(SCc2ccc(S(=O)(=O)NC(=O)NN3CCOCC3)cc2Cl)n1-c1ccc(F)c(F)c1 [4-({[5-{1-[4-(aminosulfonyl)phenyl]-1-methylethyl}-1-(3,4-difluorophenyl)-1H-imidazol-2-yl]thio}methyl)-3-chloro-N-[(morpholin-4-ylamino)carbonyl]benzenesulfonamide]	1 to 10

What follows are compounds tested against T2, human TGR5 (h-TGR5) (Homo sapiens, UniProt Q8TDU6) (assay: TGR5/CRE-Luciferiase Assay (HEK 293 hTGR5/CRE-Luc cells)). Conditions: h-TGR5 CRE-Luc EC50, Table 1; read-out: CRE-Luc (EC50).
T2 construct: expressed in transfected cells
T2 sequence (Q8TDU6 1-330): T1 sequence (Q8TDU6 1-330)
Type: cell-based
Summary of the method: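 HEK293 cells stably carrying hTGR5 and a CRE-luciferase reporter were exposed to serially diluted compounds (diluted in DMEM with 5% DMSO) for 6 h. Cells were then lysed in luciferase buffer, luminescence was read, and EC50 values were derived from dose-response curves.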

EC50 [µM]	Structure (SMILES)
0.1 to 1	COC(=O)c1cc(F)c(OCc2ncc(C(C)(C)c3ccc(Cl)c(Cl)c3)n2-c2ccc(F)cc2)c(Cl)c1 [methyl 3-chloro-4-[({5-[1-(3,4-dichlorophenyl)-1-methylethyl]-1-(4-fluorophenyl)-1H-imidazol-2-yl}methyl)oxy]-5-fluorobenzoate]
0.1 to 1	CC(C)(c1ccc(Cl)c(Cl)c1)c1cnc(SCc2c(F)cccc2CO)n1-c1ccc(F)cc1 [{2-[({5-[1-(3,4-dichlorophenyl)-1-methylethyl]-1-(4-fluorophenyl)-1H-imidazol-2-yl}thio)methyl]-3-fluorophenyl}methanol]
1 to 10	CC(C)(c1ccc(Cl)c(Cl)c1)c1cnc(SCc2ccc(F)cc2CO)n1-c1ccc(F)cc1 [{2-[({5-[1-(3,4-dichlorophenyl)-1-methylethyl]-1-(4-fluorophenyl)-1H-imidazol-2-yl}thio)methyl]-5-fluorophenyl}methanol]
0.1 to 1	CC(C)(c1ccc(Cl)c(Cl)c1)c1cnc(SCc2ccc(F)c(CO)c2)n1-c1ccc(F)cc1 [{5-[({5-[1-(3,4-dichlorophenyl)-1-methylethyl]-1-(4-fluorophenyl)-1H-imidazol-2-yl}thio)methyl]-2-fluorophenyl}methanol]
1 to 10	CC(C)(c1ccc(Cl)c(Cl)c1)c1cnc(SCc2ccc(F)cc2Cl)n1-c1ccc(F)c(OCC(=O)O)c1 [{[5-(2-{[(2-chloro-4-fluorophenyl)methyl]thio}-5-[1-(3,4-dichlorophenyl)-1-methylethyl]-1H-imidazol-1-yl)-2-fluorophenyl]oxy}acetic acid]
